Laboratory results published in ChEMBL document CHEMBL6092194, “Development of membrane-targeting chalcone derivatives as antibacterial agents against multidrug-resistant bacteria” (Eur J Med Chem, 2024).
Calls of active or inactive are those of the source. The calls are words filed in the database; no cut-off is given here.

Key:
Staphylococcus aureus [1] = experiment: Induction of morphological changes in Staphylococcus aureus ATCC43300 assessed as disruption of cell membrane by scanning electron microscopic analysis; type: functional, organism-based
[2] = Cytotoxicity against human L02 cells assessed as cell survival at 16 microg/ml by CCK8 assay relative to control; type: toxicity, cell-based; conditions: at 16 µg/mL, read-out: Survival
[3] = test system: Staphylococcus epidermidis; experiment: Antibacterial activity against erythromycin-susceptible Staphylococcus epidermidis ATCC12228 by broth microdilution assay; type: functional
Escherichia coli [4] = experiment: Antibacterial activity against Escherichia coli ATCC25922 infected in sepsis mouse model assessed as log reduction in bacterial load in blood at 5 mg/kg pre-infected with bacteria for 1 hrs followed by compound administration at 12 hrs interval for 2 days relative to control; type: functional; conditions: time 2 day
Klebsiella pneumoniae = experiment: Antibacterial activity against Klebsiella pneumoniae ATCC10031 by broth microdilution assay; type: functional
Staphylococcus aureus [5] = experiment: Bactericidal activity against Staphylococcus aureus ATCC43300 assessed as log reduction in bacterial colony at 8 microg/ml measured upto 24 hrs by time-kill kinetics assay; type: functional; conditions: dose 8 µg/ml
[6] = Ratio of MBC for Escherichia coli ATCC25922 measured after 6 hrs in presence of 50% plasma to MBC for Escherichia coli ATCC25922 in Mueller Hinton Broth; type: functional
Cell membrane [7] = experiment: Disruption of cell membrane in Staphylococcus aureus ATCC43300 assessed as increase in DNA leakage; conditions: dose 1-8 µg/ml
Staphylococcus aureus [8] = experiment: (§1) Antibacterial activity against Staphylococcus aureus ATCC43300 infected in sepsis mouse model assessed as reduction in inflammatory cell infiltration in liver at 10 mg/kg pre-infected with bacteria for 1 hrs followed by compound administration at 12 hrs interval for 2 days by H and E staining based analysis; type: functional, organism-based; conditions: time 2.0 day
Escherichia coli [9] = experiment: Bactericidal activity against Escherichia coli ATCC25922 measured upto 24 hrs by time-kill kinetics assay; type: functional, organism-based; conditions: dose 1-8 µg/ml
Cell membrane [10] = experiment: Disruption of cell membrane in Staphylococcus aureus ATCC43300 assessed as fold increase in protein leakage at 8 microg/ml relative to control; type: subcellular; conditions: dose 8.0 µg/ml
Cell membrane [11] = experiment: Induction of outer membrane permeabilization in Escherichia coli ATCC25922 assessed as fold increase in fluorescence intensity at 8 microg/ml incubated for 20 mins by NPN uptake assay; type: subcellular; conditions: dose 8.0 µg/ml
Staphylococcus aureus [12] = experiment: Induction of morphological changes in Staphylococcus aureus ATCC43300 assessed as collapse of cell membrane by scanning electron microscopic analysis; type: functional, organism-based
Staphylococcus aureus [13] = experiment: Antibacterial activity against Staphylococcus aureus ATCC43300 infected in sepsis mouse model assessed as reduction in liver damage at 5 to 10 mg/kg pre-infected with bacteria for 1 hrs followed by compound administration at 12 hrs interval for 2 days by H and E staining based analysis; type: functional, organism-based; conditions: dose 5-10 mg/kg, time 2.0 day
Staphylococcus aureus [14] = experiment: Bactericidal activity against Staphylococcus aureus ATCC43300 assessed as elimination of bacteria at 8 microg/ml measured within 4 hrs by time-kill kinetics assay relative to control; type: functional; conditions: dose 8 µg/ml
Cell membrane [15] = experiment: Disruption of cell membrane in Staphylococcus aureus ATCC43300 assessed as appearance of red fluorescence by PI staining based fluorescence microscopic analysis
Cell membrane [16] = experiment: Induction of inner membrane permeabilization in Escherichia coli ATCC25922 assessed as fold increase in fluorescence intensity at 8 microg/ml incubated for 20 mins by PI uptake assay relative to negative control; type: subcellular; conditions: dose 8.0 µg/ml
Escherichia coli [17] = experiment: as §1, with “Escherichia coli ATCC25922” for “Staphylococcus aureus ATCC43300”, “spleen” for “liver”; type: functional, organism-based; conditions: time 2.0 day
Cell membrane [18] = experiment: Disruption of cell membrane in Escherichia coli ATCC25922 assessed as increase in protein leakage; type: subcellular; conditions: dose 1-8 µg/ml
Staphylococcus aureus [19] = experiment: Antibacterial activity against erythromycin susceptible Staphylococcus aureus ATCC25923 by broth microdilution assay; type: functional
Staphylococcus aureus [20] = experiment: Antibiofilm activity against Staphylococcus aureus ATCC43300 assessed as inhibition of biofilm formation at 16 microg/ml relative to control; type: functional
Staphylococcus aureus [21] = experiment: Bactericidal activity against Staphylococcus aureus ATCC43300 measured upto 24 hrs by time-kill kinetics assay; type: functional, organism-based; conditions: dose 1-8 µg/ml
[22] = Selectivity index, ratio of HC50 for hemolytic activity in red blood cells (unknown origin) to MIC for antibacterial activity against penicillin-resistant Staphylococcus aureus ATCC43300; type: toxicity, cell-based, RBC; conditions: read-out: Selectivity Index
Staphylococcus aureus [23] = experiment: Drug resistance, ratio of MIC for Staphylococcus aureus ATCC43300 measured after 20 passages to MIC for Staphylococcus aureus ATCC43300 measured after first exposure; type: functional
Cell membrane [24] = experiment: Disruption of cell membrane in Staphylococcus aureus ATCC43300 assessed as increase in protein leakage; type: subcellular; conditions: dose 1-8 µg/ml
Staphylococcus aureus [25] = experiment: Selectivity ratio of MBC for Staphylococcus aureus ATCC43300 in presence of 50% blood to MBC for Staphylococcus aureus ATCC43300 in Mueller Hinton Broth; type: functional
Escherichia coli [26] = experiment: Bactericidal activity against Escherichia coli ATCC25922 in presence of 50% blood; type: functional
Escherichia coli [27] = experiment: Bactericidal activity against Escherichia coli ATCC25922 in presence of 50% serum; type: functional
Escherichia coli [28] = experiment: Antibiofilm activity against Escherichia coli ATCC25922 assessed as inhibition of biofilm formation at 1 microg/ml relative to control; type: functional
Escherichia coli [29] = experiment: as §1, with “Escherichia coli ATCC25922” for “Staphylococcus aureus ATCC43300”, “kidney” for “liver”; type: functional, organism-based; conditions: time 2.0 day
Staphylococcus aureus [30] = experiment: Antibacterial activity against Staphylococcus aureus ATCC43300 infected in sepsis mouse model assessed as log reduction in bacterial load in blood at 5 mg/kg pre-infected with bacteria for 1 hrs followed by compound administration at 12 hrs interval for 2 days relative to control; type: functional; conditions: time 2 day
Staphylococcus aureus [31] = experiment: Antibacterial activity against Staphylococcus aureus ATCC43300 infected in sepsis mouse model assessed as log reduction in bacterial load in kidney at 5 mg/kg pre-infected with bacteria for 1 hrs followed by compound administration at 12 hrs interval for 2 days relative to control; type: functional; conditions: time 2 day
Staphylococcus aureus [32] = experiment: Disruption of preformed biofilm in Staphylococcus aureus ATCC43300 assessed as eradication of biofilm at 8 microg/ml relative to control; type: functional; conditions: dose 8 µg/ml
Staphylococcus aureus [33] = experiment: as §1, with “kidney” for “liver”; type: functional, organism-based; conditions: time 2.0 day
[34] = Cytotoxicity against human L02 cells by CCK8 assay; type: toxicity, cell-based
Escherichia coli [35] = experiment: Induction of morphological changes in Escherichia coli ATCC25922 assessed as rough appearance of cell membrane by scanning electron microscopic analysis; type: functional, organism-based
Escherichia coli [36] = experiment: Antibacterial activity against Escherichia coli ATCC25922 infected in sepsis mouse model assessed as reduction in spleen damage at 5 to 10 mg/kg pre-infected with bacteria for 1 hrs followed by compound administration at 12 hrs interval for 2 days by H and E staining based analysis; type: functional, organism-based; conditions: dose 5-10 mg/kg, time 2.0 day
Escherichia coli [37] = experiment: Antibiofilm activity against Escherichia coli ATCC25922 assessed as inhibition of biofilm formation at 8 microg/ml relative to control; type: functional
Cell membrane [38] = experiment: Induction of cytoplasmic membrane depolarization in Escherichia coli ATCC25922 assessed as fold increase in fluorescence intensity at 8 microg/ml measured within 24 mins by DiSC3(5) dye-based fluorescence assay relative to negative control; type: subcellular; conditions: dose 8.0 µg/ml
Staphylococcus aureus [39] = experiment: Bactericidal activity against Staphylococcus aureus ATCC43300 in presence of 50% serum; type: functional

Q: With `CCCCCCOc1cc[n+](CCCOc2ccc(/C=C/C(=O)c3ccc(OCCC[n+]4ccc(OCCCCCC)cc4)cc3)cc2)cc1.[Br-].[Br-]` as the compound, how does the Activity (Staphylococcus aureus [1]) read?
A: Active

Q: And the viability at 16 microg/ml [2]?
A: > 83%

Q: And the MIC [3]?
A: 0.5 mg/L

Q: What about the “log(activity)” value (Escherichia coli [4]) of the same compound?
A: 0.71

Q: What about the MIC (Klebsiella pneumoniae) of the same compound?
A: 1 mg/L

Q: And the “log(activity)” value (Staphylococcus aureus [5])?
A: 7.24

Q: What about the Ratio [6] of the same compound?
A: <4

Q: What about the Activity (Cell membrane [7]) of the same compound?
A: Dose-dependent-effect

Q: What about the Activity (Staphylococcus aureus [8]) of the same compound?
A: inactive

Q: What about the Activity (Escherichia coli [9]) of the same compound?
A: Dose-dependent-effect

Q: What about the fold change (FC) (Cell membrane [10]) of the same compound?
A: 7.5

Q: What about the fold change (FC) (Cell membrane [11]) of the same compound?
A: 2.5

Q: What about the Activity (Staphylococcus aureus [12]) of the same compound?
A: Active

Q: And the Activity (Staphylococcus aureus [13])?
A: Active

Q: What about the Activity (Staphylococcus aureus [14]) of the same compound?
A: >=99.9%

Q: And the Activity (Cell membrane [15])?
A: Active

Q: And the fold change (FC) (Cell membrane [16])?
A: 1.9

Q: What about the Activity (Escherichia coli [17]) of the same compound?
A: inactive

Q: And the Activity (Cell membrane [18])?
A: Dose-dependent-effect

Q: What about the MIC (Staphylococcus aureus [19]) of the same compound?
A: 1 mg/L

Q: What about the inhibition at 16 µg/mL (Staphylococcus aureus [20]) of the same compound?
A: 90.9%

Q: What about the Activity (Staphylococcus aureus [21]) of the same compound?
A: Dose-dependent-effect

Q: And the selectivity ratio [22]?
A: 659

Q: What about the Ratio (Staphylococcus aureus [23]) of the same compound?
A: 4

Q: And the Activity (Cell membrane [24])?
A: Dose-dependent-effect

Q: What about the Ratio (Staphylococcus aureus [25]) of the same compound?
A: < 2

Q: And the MIC (Escherichia coli [26])?
A: 32 mg/L

Q: And the MBC (Escherichia coli [27])?
A: 32 mg/L

Q: What about the inhibition at 1 µg/mL (Escherichia coli [28]) of the same compound?
A: 12.3%

Q: What about the Activity (Escherichia coli [29]) of the same compound?
A: inactive

Q: What about the “log(activity)” value (Staphylococcus aureus [30]) of the same compound?
A: 0.8

Q: What about the “log(activity)” value (Staphylococcus aureus [31]) of the same compound?
A: 0.86

Q: What about the Activity (Staphylococcus aureus [32]) of the same compound?
A: 20.8%

Q: And the Activity (Staphylococcus aureus [33])?
A: inactive

Q: And the CC50 [34]?
A: 25.9 mg/L

Q: And the Activity (Escherichia coli [35])?
A: Active

Q: And the Activity (Escherichia coli [36])?
A: Active

Q: What about the inhibition at 8 µg/mL (Escherichia coli [37]) of the same compound?
A: 48.7%

Q: What about the fold change (FC) (Cell membrane [38]) of the same compound?
A: 7.5

Q: What about the MBC (Staphylococcus aureus [39]) of the same compound?
A: 16 mg/L
